Measured values as given in patent EP0018155A2, “Novel cephalosporin compounds, a process for the preparation thereof, pharmaceutical compositions containing the same and the use thereof as a therapeutic agent against a microorganism” (NOVO NORDISK A/S, priority 1979, dated 1980).
In brackets after ≈: the same amount, converted by molar mass. Read-outs that look alike come from different tables or passages of the source. Blank lines part the entries; values can stand above or below the compound they belong to.

What was measured:
Type in all cases: cell-based
[1] = tested on: E. coli 01; experiment: agar serial dilution test (MIC)
Experimental: (§1) The antibiotic activity in vitro of some compounds according to the invention and of some previously known compounds was tested by means of an agar serial dilution test. The following compounds were tested: 7β-[2-(2-Aminothiazol-4-yl)-2-diethylphosphoryloxyiminoacetamido] cephalosporanic acid (designated ES 643, 7β-[2-(2-amino- thiazol-4-yl)-2-dimethylphosphoryloxyiminoacetamido] cephalosporanic acid (designated ES 671), 7β-[2-(2-amino- thiazol-4-yl)-2-dimorpholinophosphoryloxyiminoacetamido] cephalosporanic acid (designated ES 656), 7β-[2-(2-amino- thiazol-4-yl)-2-methylmethylphosphonyloxyiminoacetamido] cephalosporanic acid (designated ES 682), 7β-[2-(2-amino- thiazol-4-yl)-2-hydroxyiminoacetamido] cephalosporanic acid (designated A), cefuroxime (designated B), and cephalotin (designated C). MIC designates minimum inhibitory concentration.

[2] = tested on: E. coli 04; experiment: agar serial dilution test (MIC)
Experimental: as §1

[3] = tested on: K. edwardsii K1; experiment: agar serial dilution test (MIC)
Experimental: as §1

[4] = tested on: K. pneumoniae K8; experiment: agar serial dilution test (MIC); conditions: Klebsiella pneumoniae
Experimental: as §1

[5] = tested on: P. mirabilis 2255; experiment: agar serial dilution test (MIC)
Experimental: as §1

[6] = tested on: P. mirabilis 2311; experiment: agar serial dilution test (MIC)
Experimental: as §1

[7] = tested on: P. mirabilis 682; experiment: agar serial dilution test (MIC)
Experimental: as §1

[8] = tested on: P. morganii 18; experiment: agar serial dilution test (MIC)
Experimental: as §1

[9] = tested on: P. morganii 69; experiment: agar serial dilution test (MIC)
Experimental: as §1

[10] = tested on: P. vulgaris 16868; experiment: agar serial dilution test (MIC)
Experimental: as §1

[11] = tested on: P. vulgaris 17028; experiment: agar serial dilution test (MIC)
Experimental: as §1

[12] = tested on: P. vulgaris 5209; experiment: agar serial dilution test (MIC)
Experimental: as §1

[13] = tested on: S. albus 12228; experiment: agar serial dilution test (MIC)
Experimental: as §1

[14] = tested on: S. albus 3348; experiment: agar serial dilution test (MIC)
Experimental: as §1

[15] = tested on: S. albus 3578; experiment: agar serial dilution test (MIC)
Experimental: as §1

[16] = tested on: S. aureus 13709; experiment: agar serial dilution test (MIC)
Experimental: as §1

[17] = tested on: S. aureus 209P; experiment: agar serial dilution test (MIC); conditions: Staphylococcus aureus
Experimental: as §1

[18] = tested on: S. aureus 3349; experiment: agar serial dilution test (MIC)
Experimental: as §1

[19] = tested on: S. aureus 3356; experiment: agar serial dilution test (MIC)
Experimental: as §1

[20] = tested on: S. pyogenes 12334; experiment: agar serial dilution test (MIC)
Experimental: as §1

[21] = tested on: S. pyogenes 12384; experiment: agar serial dilution test (MIC)
Experimental: as §1

[22] = tested on: P. vulgaris ATCC 6897; experiment: MIC value stated in Example 8; conditions: Proteus vulgaris, ATCC6897; against P. vulgaris ATCC 6897
[23] = Escherichia coli, 01, read-out: MIC value in μg/ml
[24] = Escherichia coli, 04, read-out: MIC value in μg/ml
[25] = K8, read-out: MIC value in μg/ml
[26] = Proteus mirabilis, 2255, read-out: MIC value in μg/ml
[27] = Proteus mirabilis, 2311, read-out: MIC value in μg/ml
[28] = Proteus mirabilis, 682, read-out: MIC value in μg/ml
[29] = Morganella morganii, 18, read-out: MIC value in μg/ml
[30] = Morganella morganii, 69, read-out: MIC value in μg/ml
[31] = Proteus vulgaris, 16868, read-out: MIC value in μg/ml
[32] = Proteus vulgaris, 17028, read-out: MIC value in μg/ml
[33] = Proteus vulgaris, 5209, read-out: MIC value in μg/ml
[34] = Staphylococcus albus, 12228, read-out: MIC value in μg/ml
[35] = Staphylococcus albus, 3348, read-out: MIC value in μg/ml
[36] = Staphylococcus albus, 3578, read-out: MIC value in μg/ml
[37] = Staphylococcus aureus, 13709, read-out: MIC value in μg/ml
[38] = 209P, read-out: MIC value in μg/ml
[39] = Staphylococcus aureus, 3349, read-out: MIC value in μg/ml
[40] = Staphylococcus aureus, 3356, read-out: MIC value in μg/ml
[41] = Streptococcus pyogenes, 12334, read-out: MIC value in μg/ml
[42] = Streptococcus pyogenes, 12384, read-out: MIC value in μg/ml

Structure (SMILES): CCOP(=O)(OCC)ON=C(C(=O)NC1C(=O)N2C(C(=O)O)=C(COC(C)=O)CSC12)c1csc(N)n1 (stereo not drawn) [ES 643, 7β-[2-(2-Aminothiazol-4-yl)-2-diethylphosphoryloxyiminoacetamido] cephalosporanic acid]
MIC [1, 23]: 0.2 µg/mL (≈ 0.346 µM)
MIC [2, 24]: 0.8 µg/mL (≈ 1.39 µM)
MIC ([3]; read-out: MIC value in μg/ml): 0.8 µg/mL (≈ 1.39 µM)
MIC [4, 25]: 1.6 µg/mL (≈ 2.77 µM)
MIC [5, 26]: < 0.1 µg/mL
MIC [6, 27]: < 0.1 µg/mL
MIC [7, 28]: < 0.1 µg/mL
MIC [8, 29]: 1.6 µg/mL (≈ 2.77 µM)
MIC [9, 30]: 0.2 µg/mL (≈ 0.346 µM)
MIC [10, 31]: 0.2 µg/mL (≈ 0.346 µM)
MIC [11, 32]: 0.2 µg/mL (≈ 0.346 µM)
MIC [12, 33]: 0.8 µg/mL (≈ 1.39 µM)
MIC [13, 34]: 1.6 µg/mL (≈ 2.77 µM)
MIC [14, 35]: 0.8 µg/mL (≈ 1.39 µM)
MIC [15, 36]: 1.6 µg/mL (≈ 2.77 µM)
MIC [16, 37]: 3.1 µg/mL (≈ 5.37 µM)
MIC [17, 38]: 3.1 µg/mL (≈ 5.37 µM)
MIC [18, 39]: 1.6 µg/mL (≈ 2.77 µM)
MIC [19, 40]: 1.6 µg/mL (≈ 2.77 µM)
MIC [20, 41]: < 0.1 µg/mL
MIC [21, 42]: < 0.1 µg/mL

MIC ([1]; Escherichia coli, E. coli 01, read-out: MIC value): < 0.1 µg/mL
MIC ([2]; Escherichia coli, E. coli 04, read-out: MIC value): 0.2 µg/mL (≈ 0.303 µM)
MIC ([3]; K. edwardsii K1, read-out: MIC value): 1.6 µg/mL (≈ 2.43 µM)
MIC ([4]; K. pneumoniae K8, read-out: MIC value): 0.4 µg/mL (≈ 0.606 µM)
MIC ([5]; Proteus mirabilis, P. mirabilis 2255, read-out: MIC value): 0.2 µg/mL (≈ 0.303 µM)
MIC ([6]; Proteus mirabilis, P. mirabilis 2311, read-out: MIC value): 0.2 µg/mL (≈ 0.303 µM)
MIC ([7]; Proteus mirabilis, P. mirabilis 682, read-out: MIC value): < 0.1 µg/mL
MIC ([8]; Morganella morganii, P. morganii 18, read-out: MIC value): 1.6 µg/mL (≈ 2.43 µM)
MIC ([9]; Morganella morganii, P. morganii 69, read-out: MIC value): 3.1 µg/mL (≈ 4.7 µM)
MIC ([10]; Proteus vulgaris, P. vulgaris 16868, read-out: MIC value): 12.5 µg/mL (≈ 18.9 µM)
MIC ([11]; Proteus vulgaris, P. vulgaris 17028, read-out: MIC value): 25 µg/mL (≈ 37.9 µM)
MIC ([12]; Proteus vulgaris, P. vulgaris 5209, read-out: MIC value): 50 µg/mL (≈ 75.8 µM)
MIC ([13]; Staphylococcus albus, S. albus 12228, read-out: MIC value): 0.2 µg/mL (≈ 0.303 µM)
MIC ([14]; Staphylococcus albus, S. albus 3348, read-out: MIC value): 0.2 µg/mL (≈ 0.303 µM)
MIC ([15]; Staphylococcus albus, S. albus 3578, read-out: MIC value): 0.2 µg/mL (≈ 0.303 µM)
MIC ([16]; Staphylococcus aureus, S. aureus 13709, read-out: MIC value): 0.2 µg/mL (≈ 0.303 µM)
MIC ([17]; S. aureus 209P, read-out: MIC value): 0.2 µg/mL (≈ 0.303 µM)
MIC ([18]; Staphylococcus aureus, S. aureus 3349*, penicillin-resistant strain, read-out: MIC value): 0.4 µg/mL (≈ 0.606 µM)
MIC ([19]; Staphylococcus aureus, S. aureus 3356*, penicillin-resistant strain, read-out: MIC value): 0.2 µg/mL (≈ 0.303 µM)
MIC ([20]; Streptococcus pyogenes, S. pyogenes 12334, read-out: MIC value): < 0.1 µg/mL
MIC ([21]; Streptococcus pyogenes, S. pyogenes 12384, read-out: MIC value): < 0.1 µg/mL
Structure (SMILES): CC(=O)OCC1=C(C(=O)O)N2C(=O)C(NC(=O)C(=NOP(=O)(N3CCOCC3)N3CCOCC3)c3csc(N)n3)C2SC1 (stereo not drawn) [ES 656, 7β-[2-(2-amino-thiazol-4-yl)-2-dimorpholinophosphoryloxyiminoacetamido] cephalosporanic acid]

Structure (SMILES): COP(=O)(OC)ON=C(C(=O)NC1C(=O)N2C(C(=O)O)=C(COC(C)=O)CSC12)c1csc(N)n1 (stereo not drawn) [ES 671, 7β-[2-(2-amino-thiazol-4-yl)-2-dimethylphosphoryloxyiminoacetamido] cephalosporanic acid]
MIC [1, 23]: 0.2 µg/mL (≈ 0.364 µM)
MIC [2, 24]: 0.4 µg/mL (≈ 0.728 µM)
MIC ([3]; read-out: MIC value in μg/ml): 0.2 µg/mL (≈ 0.364 µM)
MIC [4, 25]: 0.4 µg/mL (≈ 0.728 µM)
MIC [5, 26]: 0.1 µg/mL (≈ 0.182 µM)
MIC [6, 27]: < 0.1 µg/mL
MIC [7, 28]: < 0.1 µg/mL
MIC [8, 29]: < 0.1 µg/mL
MIC [9, 30]: 0.4 µg/mL (≈ 0.728 µM)
MIC [10, 31]: < 0.1 µg/mL
MIC [11, 32]: < 0.1 µg/mL
MIC [12, 33]: 0.2 µg/mL (≈ 0.364 µM)
MIC [13, 34]: 0.4 µg/mL (≈ 0.728 µM)
MIC [14, 35]: 0.8 µg/mL (≈ 1.46 µM)
MIC [15, 36]: 0.8 µg/mL (≈ 1.46 µM)
MIC [16, 37]: 1.6 µg/mL (≈ 2.91 µM)
MIC [17, 38]: 3.1 µg/mL (≈ 5.64 µM)
MIC [18, 39]: 1.6 µg/mL (≈ 2.91 µM)
MIC [19, 40]: 1.6 µg/mL (≈ 2.91 µM)
MIC [20, 41]: < 0.1 µg/mL
MIC [21, 42]: < 0.1 µg/mL

Structure (SMILES): COP(=O)(O)ON=C(C(=O)NC1C(=O)N2C(C(=O)O)=C(COC(C)=O)CSC12)c1csc(N)n1 (stereo not shown) [Example 8b]
MIC [22]: 0.2 µg/mL (≈ 0.374 µM)
